Reference: patent publication US12428406B2 (PMV Pharmaceuticals, Inc., priority 2019, dated 2025)

These compounds were tested against T1, p53 Y220C (Homo sapiens, UniProt P04637, Y220C) (assay: In vitro DNA binding activity assay (HTRF / TR-FRET): stabilization of p53 Y220C and increase of its DNA binding activity). Conditions: recombinant His-tagged p53 Y220C DNA binding domain (aa 94-312), biotin-labeled consensus DNA, incubated at 27° C. or 29° C. for 60 min.
T1 construct: The recombinant protein was a truncation mutant containing only amino acids 94-312 of p53; made in house; host or cells: E. coli
Format: biochemical
In short: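 Homogeneous time-resolved fluorescence with E. coli-derived p53 Y220C and biotinylated consensus DNA. Room-temperature incubations of 15 and 20 min precede reading. SC150 denotes the compound concentration required for 50% increased DNA binding.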

T1 sequence (P04637 94-312, change not shown): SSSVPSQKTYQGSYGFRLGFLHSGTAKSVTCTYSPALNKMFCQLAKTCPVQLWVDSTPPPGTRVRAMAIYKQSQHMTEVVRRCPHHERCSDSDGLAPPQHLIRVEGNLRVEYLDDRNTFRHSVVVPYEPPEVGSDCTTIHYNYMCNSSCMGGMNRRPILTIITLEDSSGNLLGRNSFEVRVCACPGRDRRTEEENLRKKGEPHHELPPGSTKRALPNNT

Structure (SMILES)	SC150 (concentration of the compound required to increase the DNA binding activity by 50%)
CNC(=O)c1ccc(NCC#Cc2cc3c(NC4CCN(CC(O)COC)CC4)cccc3n2CC(F)(F)F)c(OC)c1 (centres unmarked) [Compound 601A, 4-{[3-(4-{[1-(2-hydroxy-3-methoxypropyl)piperidin-4-yl]amino}-1-(2,2,2-trifluoroethyl)-1H-indol-2-yl)prop-2-yn-1-yl]amino}-3-methoxy-N-methylbenzamide]	+ (+ = 0 μM ≤ SC150 < 0.05 μM)
COc1cc(C(N)=O)c(F)cc1NCC#Cc1cc2c(NC3CCN(C)CC3)cccc2n1CC(F)(F)F [Compound 514A, 2-fluoro-5-methoxy-4-[(3-{4-[(1-methylpiperidin-4-yl)amino]-1-(2,2,2-trifluoroethyl)-1H-indol-2-yl}prop-2-yn-1-yl)amino]benzamide]	+ (+ = 0 μM ≤ SC150 < 0.05 μM)
COc1cc(S(=O)(=O)N2CCN(C)CC2)ccc1NCC#Cc1cc2c(NC3CCN(C)CC3)cccc2n1CC(F)(F)F [Compound 485A, 2-[3-({2-methoxy-4-[(4-methylpiperazin-1-yl)sulfonyl]phenyl}amino)prop-1-yn-1-yl]-N-(1-methylpiperidin-4-yl)-1-(2,2,2-trifluoroethyl)-1H-indol-4-amine]	+ (+ = 0 μM ≤ SC150 < 0.05 μM)
COc1cc(C(F)(F)F)ccc1NCC#Cc1cc2c(N[C@H]3CC[C@H](N4CC5(COC5)C4)CC3)cccc2n1CC(F)(F)F [Compound 277A, 2-(3-{[2-methoxy-4-(trifluoromethyl)phenyl]amino}prop-1-yn-1-yl)-N-[(1R,4R)-4-{2-oxa-6-azaspiro[3.3]heptan-6-yl}cyclohexyl]-1-(2,2,2-trifluoroethyl)-1H-indol-4-amine]	++ (++ = 0.05 μM ≤ SC150 < 0.1 μM)
CNC(=O)c1ccc(NCC#Cc2cc3c(N[C@H]4CC[C@@H](N5CC6(COC6)C5)CC4)cccc3n2CC(F)(F)F)c(OC)c1 [Compound 230A, 3-methoxy-N-methyl-4-{[3-(4-{[(1S,4S)-4-{2-oxa-6-azaspiro[3.3]heptan-6-yl}cyclo-hexyl]amino}-1-(2,2,2-trifluoroethyl)-1H-indol-2-yl)prop-2-yn-1-yl]amino}benzamide]	+ (+ = 0 μM ≤ SC150 < 0.05 μM)
COc1cc(S(N)(=O)=O)ccc1NCC#Cc1cc2c(N[C@H]3CC[C@H](N4CCC(OC)C4)CC3)cccc2n1CC(F)(F)F (stereo partly drawn) [Compound 427A, 3-methoxy-4-{[3-(4-{[(1R,4R)-4-(3-methoxypyrrolidin-1-yl)cyclohexyl]amino}-1-(2,2,2-trifluoroethyl)-1H-indol-2-yl)prop-2-yn-1-yl]amino}benzene-1-sulfonamide]	+ (+ = 0 μM ≤ SC150 < 0.05 μM)
COc1cc(S(=O)(=O)N2CCOCC2)ccc1NCC#Cc1cc2c(NC3CCN(C)CC3)cccc2n1CC(F)(F)F [Compound 480A, 2-(3-{[2-methoxy-4-(morpholine-4-sulfonyl)phenyl]amino}prop-1-yn-1-yl)-N-(1-methylpiperidin-4-yl)-1-(2,2,2-trifluoroethyl)-1H-indol-4-amine]	+ (+ = 0 μM ≤ SC150 < 0.05 μM)
CNC(=O)c1ccc(NCC#Cc2cc3c(N[C@H]4CC[C@@H](N)CC4)cccc3n2CC(F)(F)F)c(OC)c1 [Compound 25A, 3-methoxy-N-methyl-4-{[3-(4-{[(1S,4S)-4-aminocyclohexyl]amino}-1-(2,2,2-trifluoroethyl)-1H-indol-2-yl)prop-2-yn-1-yl]amino}benzamide]	+ (+ = 0 μM ≤ SC150 < 0.05 μM)
CNC(=O)c1ccc(NCC#Cc2cc3c(N[C@H]4CC[C@@H](NC)CC4)cccc3n2CC(F)(F)F)c(OC)c1 [Compound 110A, 3-methoxy-N-methyl-4-{[3-(4-{[(1S,4S)-4-(methylamino)cyclohexyl]amino}-1-(2,2,2-trifluoro-ethyl)-1H-indol-2-yl)prop-2-yn-1-yl]amino}benzamide]	+ (+ = 0 μM ≤ SC150 < 0.05 μM)
CS(=O)(=O)c1ccc(NCC#Cc2cc3c(N[C@H]4CC[C@@H](N5CC6(COC6)C5)CC4)cccc3n2CC(F)(F)F)c(OCC#N)c1 [Compound 223A, 2-(5-methanesulfonyl-2-{[3-(4-{[(1S,4S)-4-{2-oxa-6-azaspiro[3.3]heptan-6-yl}cyclo-hexyl]amino}-1-(2,2,2-trifluoroethyl)-1H-indol-2-yl)prop-2-yn-1-yl]amino}phenoxy) acetonitrile]	+ (+ = 0 μM ≤ SC150 < 0.05 μM)
COc1cc(S(=O)(=O)NC2CCOCC2)ccc1NCC#Cc1cc2c(N[C@H]3CC[C@@H](N(C)C)CC3)cccc2n1CC(F)(F)F [Compound 51A, 3-methoxy-N-(oxan-4-yl)-4-{[3-(4-{[(1S,4S)-4-(dimethylamino)cyclohexyl]amino}-1-(2,2,2-trifluoroethyl)-1H-indol-2-yl)prop-2-yn-1-yl]amino}benzene-1-sulfonamide]	+ (+ = 0 μM ≤ SC150 < 0.05 μM)
COc1cc(S(=O)(=O)N2CCOCC2)ccc1NCC#Cc1cc2c(NC3CCNCC3)cccc2n1CC(F)(F)F [Compound 459A, 2-(3-{[2-methoxy-4-(morpholine-4-sulfonyl)phenyl]amino}prop-1-yn-1-yl)-N-(piperidin-4-yl)-1-(2,2,2-trifluoroethyl)-1H-indol-4-amine]	+ (+ = 0 μM ≤ SC150 < 0.05 μM)
COc1cc(S(C)(=O)=O)ccc1NCC#Cc1cc2c(N[C@H]3CC[C@H](N4CC5(COC5)C4)CC3)cccc2n1CC(F)(F)F [Compound 202A, 2-{3-[(4-methanesulfonyl-2-methoxyphenyl)amino]prop-1-yn-1-yl}-N-[(1R,4R)-4-{2-oxa-6-azaspiro[3.3]heptan-6-yl}cyclohexyl]-1-(2,2,2-trifluoroethyl)-1H-indol-4-amine]	+ (+ = 0 μM ≤ SC150 < 0.05 μM)

Other lines, results leading:

SC150 (concentration of the compound required to increase the DNA binding activity by 50%)	Structure (SMILES)
+ (+ = 0 μM ≤ SC150 < 0.05 μM)	CNC(=O)c1ccc(NCC#Cc2cc3c(NC4CCN(C[C@@H](O)COC)CC4)cccc3n2CC(F)(F)F)c(OC)c1 [Compound 647A, 4-({3-[4-({1-[(2R)-2-hydroxy-3-methoxypropyl]piperidin-4-yl}amino)-1-(2,2,2-trifluoroethyl)-1H-indol-2-yl]prop-2-yn-1-yl}amino)-3-methoxy-N-methylbenzamide]
+ (+ = 0 μM ≤ SC150 < 0.05 μM)	CNC(=O)c1ccc(NCC#Cc2cc3c(NC4CCN(C[C@@H](CO)OC)CC4)cccc3n2CC(F)(F)F)c(OC)c1 [Compound 650A, 4-({3-[4-({1-[(2S)-3-hydroxy-2-methoxypropyl]piperidin-4-yl}amino)-1-(2,2,2-trifluoroethyl)-1H-indol-2-yl]prop-2-yn-1-yl}amino)-3-methoxy-N-methylbenzamide]
+ (+ = 0 μM ≤ SC150 < 0.05 μM)	COC(=O)c1ccc(NCC#Cc2cc3c(N[C@H]4CCN(CCO)C[C@H]4F)cccc3n2CC(F)(F)F)c(OC)c1 [Compound 903A, methyl 4-{[3-(4-{[(3R,4S)-3-fluoro-1-(2-hydroxyethyl)piperidin-4-yl]amino}-1-(2,2,2-trifluoroethyl)-1H-indol-2-yl)prop-2-yn-1-yl]amino}-3-methoxybenzoate]
+ (+ = 0 μM ≤ SC150 < 0.05 μM)	COCCNC(=O)c1ccc(NCC#Cc2cc3c(N[C@@H]4CCN(C)C[C@@H]4F)cccc3n2CC(F)(F)F)c(OC)c1 [Compound 945A, 4-{[3-(4-{[(3S,4R)-3-fluoro-1-methylpiperidin-4-yl]amino}-1-(2,2,2-trifluoroethyl)-1H-indol-2-yl)prop-2-yn-1-yl]amino}-3-methoxy-N-(2-methoxyethyl)benzamide]
+ (+ = 0 μM ≤ SC150 < 0.05 μM)	COc1cc(S(C)(=O)=O)ccc1NCC#Cc1cc2c(N[C@H]3CCN(C(C)C)C[C@H]3F)cccc2n1CC(F)(F)F (racemic) [Compound 795A, (rac)-N-[(3R,4S)-3-fluoro-1-(propan-2-yl)piperidin-4-yl]-2-{3-[(4-methanesulfonyl-2-methoxyphenyl)amino]prop-1-yn-1-yl}-1-(2,2,2-trifluoroethyl)-1H-indol-4-amine]
+ (+ = 0 μM ≤ SC150 < 0.05 μM)	COC(=O)c1ccc(NCC#Cc2cc3c(N[C@@H]4CCN(CCO)C[C@@H]4F)cccc3n2CC(F)(F)F)c(OC)c1 [Compound 899A, methyl 4-{[3-(4-{[(3S,4R)-3-fluoro-1-(2-hydroxyethyl)piperidin-4-yl]amino}-1-(2,2,2-trifluoroethyl)-1H-indol-2-yl)prop-2-yn-1-yl]amino}-3-methoxybenzoate]
+ (+ = 0 μM ≤ SC150 < 0.05 μM)	COc1cc(S(C)(=O)=O)ccc1NCC#Cc1cc2c(N[C@H]3CCN(C(=O)CN)C[C@H]3F)cccc2n1CC(F)(F)F [Compound 892A]
+ (+ = 0 μM ≤ SC150 < 0.05 μM)	CCOc1cc(S(C)(=O)=O)ccc1NCC#Cc1cc2c(N[C@@H]3CCN(C)C[C@@H]3F)cccc2n1CC(F)(F)F [Compound 843A]
+ (+ = 0 μM ≤ SC150 < 0.05 μM)	COc1cc(S(=O)(=O)N(C)CCO)ccc1NCC#Cc1cc2c(NC3CCS(=O)(=O)CC3)cccc2n1CC(F)(F)F [Compound 1038A, 4-[(3-{4-[(1,1-dioxo-1λ^6-thian-4-yl)amino]-1-(2,2,2-trifluoroethyl)-1H-indol-2-yl}prop-2-yn-1-yl)amino]-N-(2-hydroxyethyl)-3-methoxy-N-methylbenzene-1-sulfonamide]
+ (+ = 0 μM ≤ SC150 < 0.05 μM)	COc1cc(S(N)(=O)=O)ccc1NCC#Cc1cc2c(NC3CCN(C(=O)CN(C)C)CC3)cccc2n1CC(F)(F)F [Compound 751A]
